Results taken from patent US11053234B2 (GlaxoSmithKline Intellectual Property Development Limited, priority 2016, dated 2021).

Biological target: T1, haematopoietic prostaglandin D synthase (H-PGDS) (Homo sapiens, UniProt O60760)
T1 construct: Full length human H-PGDS cDNA (Invitrogen Ultimate ORF 10H13026) was amplified by PCR; 6-His (N); TEV protease cleavage site (N); made in house; host or cells: E. coli BL21 (DE3*), vector pET22b+
Test: H-PGDS RapidFire high throughput mass spectrometry assay (conversion of PGH2 to PGD2)
Assay type: biochemical
Details: 10 nM H-PGDS, PGH2 formed in situ by COX-2 from arachidonic acid; read-out: Potency Range (mean pIC50) (converted)
Description: H-PGDS RapidFire™ High Throughput Mass Spectrometry Assay
The H-PGDS RapidFire™ mass spectrometric assay monitors conversion of prostaglandin H2 (PGH2) to prostaglandin D2 (PGD2) by haematopoietic prostaglandin D synthase (H-PGDS). In the assay format described here, the substrate (PGH2) is formed in situ by the action of cyclooxygenase-2 on arachidonic acid. This first step is set up to be fast, and generates a burst of PGH2 at ˜10 μM. The PGH2 is then further converted to PGD2 by the H-PGDS enzyme. […] Plates are then read on the RapidFire™ high throughput solid phase extraction system (Agilent) which incorporates a solid phase extraction step coupled to a triple quadrupole mass spectrometer (AB SCIEX). Relative levels of PGD2 and PGF2α, which acts as a surrogate for substrate, are measured and a percent conversion calculated.
Expression and Purification of H-PGDS Protein
Full length human H-PGDS cDNA (Invitrogen Ultimate ORF 10H13026) was amplified by PCR with the addition of a 5′ 6-His tag and TEV protease cleavage site. The PCR product was digested with Ndel and Xhol and ligated into pET22b+ (Merck Novagen®). Expression was carried out in E. coli strain BL21 (DE3*) using auto-induction Overnight Express™ Instant TB medium (Merck Novagen®) supplemented with 1% glycerol. The culture was first grown at 37° C. and the temperature was reduced to 25° C. when OD600 reached 2.0. Cells were harvested by centrifugation after a further 18 hr. 10 g of E. coli cell pellet was suspended to a total volume of 80 mL in lysis buffer (20 mM Tris-Cl pH 7.5, 300 mM NaCl, 20 mM imidazole, 5 mM β-mercaptoethanol, 10% glycerol). 1 mg/mL protease inhibitors (Protease Inhibitor Cocktail Set III, Merck Calbiochem®) and 1 mg/mL lysozyme were added to the cell suspension. The suspension was then sonicated for 5 min (UltraSonic Processor VCX 750, Cole-Parmer Instrument Co.) with a micro probe (50% amplitude, 10 sec on/off) and then centrifuged at 100,000 g for 90 min (at 4° C.). The supernatant was loaded onto a Ni-NTA HiTrap column (5 mL, GE Healthcare, pre-equilibrated in lysis buffer). The column was washed with 10 column volumes of lysis buffer and eluted with lysis buffer containing 500 mM imidazole. The pooled protein peak fractions were concentrated using a 10 kDa centrifugal filter at 3500 g and 4° C. (Amicon Ultra-15 centrifugal filter unit with Ultracel-10 membrane from Millipore). Further purification of the concentrated protein was carried out using gel filtration chromatography on a HiLoad 26/600 Superdex 75 preparative grade column (GE Healthcare Life Sciences) using 50 mM Tris pH 7.5, 50 mM NaCl, 1 mM dithiothreitol, 1 mM MgCl2. Fractions containing the protein were pooled, concentrated as described above, and stored at −80° C.
Expression and Purification of Cyclooxygenase-2 (COX-2) Protein
The full length human COX-2 gene (accession number L15326) was amplified by PCR to generate an EcoRI-HindIII fragment containing an in-frame FLAG tag. This was subcloned into pFastBac 1 (Invitrogen). The COX2 FLAG plasmid was recombined into the baculovirus genome according to the BAC-to-BAC protocol described by Invitrogen. Transfection into Spodoptera frugiperda (Sf9) insect cells was performed using Cellfectin (Invitrogen), according to the manufacturer's protocol. […] Cells were harvested using a continuous feed centrifuge run at 2500 g at a rate of approximately 2 L/min with cooling. The resultant cell slurry was re-centrifuged in pots (2500 g, 20 min, 4° C.) and the cell paste was stored at −80° C. […] The suspension was sonicated in 500 mL batches for 8×5 seconds at 10 u amplitude with the medium tip of an MSE probe sonicator and subsequently incubated at 4° C. for 90 min with gentle stirring. The lysate was centrifuged at 12000 rpm for 45 min at 4° C. in a Sorvall SLA1500 rotor. The supernatant (1400 mL) was added to 420 mL of 20 mM Tris-Cl pH 7.4, 150 mM NaCl, 0.1 mM EDTA to reduce the concentration of n-octyl-6-D-glucopyranoside to 1% w/v.

T1 sequence (O60760 whole entry): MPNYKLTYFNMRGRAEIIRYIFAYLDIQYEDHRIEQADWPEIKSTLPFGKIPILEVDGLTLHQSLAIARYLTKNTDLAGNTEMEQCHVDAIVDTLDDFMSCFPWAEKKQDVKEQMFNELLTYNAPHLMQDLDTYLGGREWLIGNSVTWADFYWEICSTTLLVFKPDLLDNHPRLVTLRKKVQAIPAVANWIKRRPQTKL

O=C(N[C@H]1CC[C@H](OCC(O)C2CC2)CC1)[C@H]1C[C@H](Oc2cc(F)ccc2OC(F)F)C1 (mixture of isomers) [Example 9, Racemic (trans)-N-((trans)-4-(2-Cyclopropyl-2-hydroxyethoxy)cyclohexyl)-3-(2-(difluoromethoxy)-5-fluorophenoxy)cyclobutanecarboxamide] and O=C(N[C@H]1CC[C@H](C(O)C2CC2)CC1)[C@H]1C[C@H](Oc2cc(F)ccc2OC(F)F)C1 (mixture of isomers) [Example 27, Racemic (trans)-N-((trans)-4-(Cyclopropyl(hydroxy)methyl)cyclohexyl)-3-(2-(difluoromethoxy)-5-fluorophenoxy)cyclobutanecarboxamide] fall in the same range of IC50: 10 to 79.4 nM for the first, 10 to 79.4 nM for the second.

CC(O)(CO[C@H]1CC[C@H](NC(=O)[C@H]2C[C@H](Oc3cc(F)ccc3OC(F)F)C2)CC1)C1CC1 (mixture of isomers) [Example 11, Racemic (trans)-N-((trans)-4-(2-Cyclopropyl-2-hydroxypropoxy)cyclohexyl)-3-(2-(difluoromethoxy)-5-fluorophenoxy)cyclobutanecarboxamide] and CC(O)([C@H]1CC[C@H](NC(=O)[C@H]2C[C@H](Oc3cc(F)ccc3OC(F)F)C2)CC1)C(F)(F)F (mixture of isomers) [Example 28, Racemic (trans)-3-(2-(Difluoromethoxy)-5-fluorophenoxy)-N-((trans)-4-(1,1,1-trifluoro-2-hydroxypropan-2-yl)cyclohexyl)cyclobutanecarboxamide] fall in the same range of IC50: 10 to 79.4 nM for the first, 10 to 79.4 nM for the second.

CC(C(F)F)N1CCC(NC(=O)[C@H]2C[C@H](Oc3cc(F)ccc3OC(F)F)C2)CC1 (mixture of isomers) [Example 21, Racemic (trans)-3-(2-(Difluoromethoxy)-5-fluorophenoxy)-N-(1-(1,1-difluoropropan-2-yl)piperidin-4-yl)cyclobutanecarboxamide] and CC(N[C@H]1CC[C@H](NC(=O)[C@H]2C[C@H](Oc3cc(F)ccc3OC(F)F)C2)CC1)C(F)F (mixture of isomers) [Example 23, Racemic (trans)-3-(2-(Difluoromethoxy)-5-fluorophenoxy)-N-((trans)-4-((1,1-difluoropropan-2-yl)amino)cyclohexyl)cyclobutanecarboxamide] fall in the same range of IC50: 10 to 79.4 nM for the first, 10 to 79.4 nM for the second.

O=C1Nc2ccccc2C1NC(=O)[C@H]1C[C@H](Oc2cc(F)ccc2OC(F)F)C1 (mixture of isomers) [Example 24, Racemic (trans)-3-(2-(Difluoromethoxy)-5-fluorophenoxy)-N-(2-oxoindolin-3-yl)cyclobutanecarboxamide] and O=C1CC(NC(=O)[C@H]2C[C@H](Oc3cc(F)ccc3OC(F)F)C2)c2ccccc2N1 (mixture of isomers) [Example 25, Racemic (trans)-3-(2-(Difluoromethoxy)-5-fluorophenoxy)-N-(2-oxo-1,2,3,4-tetrahydroquinolin-4-yl)cyclobutanecarboxamide] fall in the same range of IC50: 10 to 79.4 nM for the first, 10 to 79.4 nM for the second.

CC(O)[C@H]1CC[C@H](NC(=O)[C@H]2C[C@H](Oc3cc(F)ccc3OC(F)F)C2)CC1 (mixture of isomers) [Example 26] and CC(N[C@H]1CC[C@H](NC(=O)[C@H]2C[C@H](Oc3cccc4scnc34)C2)CC1)C(F)F (mixture of isomers) [Example 46, Racemic (trans)-3-(Benzo[d]thiazol-4-yloxy)-N-((trans)-4-((1,1-difluoropropan-2-yl)amino)cyclohexyl)cyclobutanecarboxamide] fall in the same range of IC50: 10 to 79.4 nM for the first, 10 to 79.4 nM for the second.

CC(N[C@H]1CC[C@H](NC(=O)N2CC(Oc3cccc4scnc34)C2)CC1)C(F)F (mixture of isomers) [Example 40, Racemic 3-(Benzo[d]thiazol-4-yloxy)-N-((trans)-4-((1,1-difluoropropan-2-yl)amino)cyclohexyl)azetidine-1-carboxamide] and CC(N1CCC(NC(=O)N2CC(Oc3cccc4scnc34)C2)CC1)C(F)(F)F (racemic) [Example 86, Racemic 3-(Benzo[d]thiazol-4-yloxy)-N-(1-(1,1,1-trifluoropropan-2-yl)piperidin-4-yl)azetidine-1-carboxamide] fall in the same range of IC50: 10 to 79.4 nM for the first, 10 to 79.4 nM for the second.

CC(C)(O)[C@@H]1CC[C@@H](NC(=O)[C@H]2C[C@H](Oc3cccc4scnc34)C2)CO1 (racemic) [Example 51, Racemic (trans)-3-(Benzo[d]thiazol-4-yloxy)-N-((trans)-6-(2-hydroxypropan-2-yl)tetrahydro-2H-pyran-3-yl)cyclobutanecarboxamide] and CC(C)(O)[C@@H]1CC[C@@H](NC(=O)N2CC(Oc3cccc4scnc34)C2)CO1 (racemic) [Example 104, Racemic 3-(Benzo[d]thiazol-4-yloxy)-N-((trans)-6-(2-hydroxypropan-2-yl)tetrahydro-2H-pyran-3-yl)azetidine-1-carboxamide] fall in the same range of IC50: 10 to 79.4 nM for the first, 10 to 79.4 nM for the second.

First: O=C(NC1CCN(c2ccccn2)C1)[C@H]1C[C@H](Oc2cccc3scnc23)C1 (mixture of isomers) [Example 82, Racemic (trans)-3-(Benzo[d]thiazol-4-yloxy)-N-(1-(pyridin-2-yl)pyrrolidin-3-yl)cyclobutanecarboxamide]
Second: O=C(NC1CCN(c2ccccn2)C1)N1CC(Oc2cccc3scnc23)C1 (racemic) [Example 87, Racemic 3-(Benzo[d]thiazol-4-yloxy)-N-(1-(pyridin-2-yl)pyrrolidin-3-yl)azetidine-1-carboxamide]
The IC50 of the first is lower: 10 to 79.4 nM for the first, 100 to 1000 nM for the second.

CC(C)(O)C1CC2(CC(NC(=O)[C@H]3C[C@H](Oc4cccc5scnc45)C3)C2)C1 (mixture of isomers) [Example 83, Racemic (trans)-3-(Benzo[d]thiazol-4-yloxy)-N-(6-(2-hydroxypropan-2-yl)spiro[3.3]heptan-2-yl)cyclobutanecarboxamide] and O=C1CC(NC(=O)[C@H]2C[C@H](Oc3cccc4scnc34)C2)c2ccccc2N1 (mixture of isomers) [Example 84, Racemic (trans)-3-(Benzo[d]thiazol-4-yloxy)-N-(2-oxo-1,2,3,4-tetrahydroquinolin-4-yl)cyclobutanecarboxamide] fall in the same range of IC50: 10 to 79.4 nM for the first, 10 to 79.4 nM for the second.

O=C(NC1CCCOC1)N1CC(Oc2cccc3scnc23)C1 (racemic) [Example 90, Racemic 3-(Benzo[d]thiazol-4-yloxy)-N-(tetrahydro-2H-pyran-3-yl)azetidine-1-carboxamide] and CC(=O)N1CCCC(NC(=O)N2CC(Oc3cccc4scnc34)C2)C1 (racemic) [Example 92, Racemic N-(1-Acetylpiperidin-3-yl)-3-(benzo[d]thiazol-4-yloxy)azetidine-1-carboxamide] fall in the same range of IC50: 100 to 1000 nM for the first, 100 to 1000 nM for the second.

COC(=O)N1CCCC(NC(=O)N2CC(Oc3cccc4scnc34)C2)C1 (racemic) [Example 93, Racemic Methyl 3-(3-(benzo[d]thiazol-4-yloxy)azetidine-1-carboxamido)piperidine-1-carboxylate] and COC(=O)N1CCOC(CNC(=O)N2CC(Oc3cccc4scnc34)C2)C1 (racemic) [Example 94, Racemic Methyl 2-((3-(benzo[d]thiazol-4-yloxy)azetidine-1-carboxamido)methyl)morpholine-4-carboxylate] fall in the same range of IC50: 100 to 1000 nM for the first, 100 to 1000 nM for the second.

CC(O)(CO[C@H]1CC[C@H](NC(=O)N2CC(Oc3cccc4scnc34)C2)CC1)C1CC1 (mixture of isomers) [Example 100, Racemic 3-(Benzo[d]thiazol-4-yloxy)-N-((trans)-4-(2-cyclopropyl-2-hydroxypropoxy)cyclohexyl)azetidine-1-carboxamide] gave an IC50 of 10 to 79.4 nM.
